Reference: patent US8906829B2, “Synergistic algicidal compositions including hydrazone derivatives and copper” (Dow AgroSciences LLC, priority 2010, dated 2014)

Columns and labels:
[1] = test system: Synechocystis sp. strain 6803; assay: Growth inhibition of Synechocystis by hydrazones and isolated metal-hydrazone complexes, BG-11 Cu minus medium (Example 12); format: cell-based; conditions: for inhibition of growth at 0.05 µg/mL / Complex % Inhn.: Test Concn. 0.05 μg/ml
Procedure: In vitro toxicity assays against the cyanobacterium (blue-green alga) Synechocystis sp. strain 6803 were conducted using BG-11 medium except that copper micronutrient, normally included as CuSO4.5H2O, was omitted. The medium, termed BG-11 Cu minus, was prepared by dissolving 1.5 g NaNO3, 40 mg K2HPO4, 6 mg citric acid, 1 mg Na2EDTA and 20 mg Na2CO3 in 1 liter of milli Q water and treating the solution with 0.5 g Chelex 100 resin (Bio-Rad Analytical grade, 50-100 mesh, sodium form, cat#142-2822) by stifling at room temperature for 1 h. 900 mL were decanted and 67.5 mg MgSO4.7H2O, 32.4 mg […], 5.4 mg ferric ammonium citrate and 0.9 mL trace metal mix A5 without copper (2.86 g H3BO3, 1.81 g MnCl2.4H2O, 222 mg ZnSO4.7H2O, 390 mg Na2MoO4.2H2O and Co(NO3)2.6H2O in 1 L Milli Q water) was added. The pH was adjusted to 7.1 and the medium was filter-sterilized. Medium containing copper (BG-11 Cu plus) was prepared by adding CuCl2.2H2O to the BG-11 Cu minus medium at 0.2 μM. Test compounds were dissolved in dimethylsulfoxide (DMSO) at 2 mg/mL then appropriate dilutions in BG-11 Cu minus and BG-11 Cu plus media were prepared in sterilized microcentrifuge tubes. 100 μL aliquots were dispensed into flat-bottomed 96-well microtiter plates. Synechocystis was maintained under 24 h of light on BG-11 agar plates at 27° C. A loopful of cells was added to 50 mL of BG-11 Cu minus growth medium and the culture was incubated with shaking at 200 rpm at 27° C. for 24 h. The culture (10 to 20 mL aliquot) was centrifuged in a bench centrifuge at 2400 rpm for 2 min. The resulting cell pellet was resuspended in 5 mL sterile milli Q water (which had been treated with Chelex 100 resin using 0.5 g resin per liter of water by stirring at room temperature for 1 h), and recentrifuged. The cells were resuspended in BG-11 Cu minus medium, and the suspension adjusted to 4×10^5 spores per mL. Microtiter plates containing compounds as described above were inoculated with 100 μL of this cell suspension and the plates incubated at 27° C. for 72 h before assessing algal growth by measuring light scattering in a NepheloStar plate reader. Growth inhibition was determined by comparing growth in the presence of test compound with growth in control wells lacking test compound. Hydrazones and their isolated metal complexes were compared with respect to their in vitro activity toward C. reinhardtii and the cyanobacterium (blue-green alga) Synechocystis sp. strain 6803. Metal complexes of hydrazones were prepared by precipitation from ethanol with various metal salts at 1:1, 2:1 or 3:1 molar ratios, as described in general by Ainscough, Brodie, Dobbs, Ranford, and Waters (Inorganica Chimica Acta 1998, 267, 27-38, which is expressly incorporated by reference herein). In vitro assays against Synechocystis were conducted as described in Example 11 using BG-11 Cu minus medium. Growth inhibition was determined by comparing growth in the presence of test compound with growth in control wells lacking test compound.

[2] = test system: Synechocystis sp. strain 6803; assay: Effect of copper on activity of hydrazones: in vitro growth inhibition of Synechocystis in BG-11 Cu minus / Cu plus medium (Example 11); format: cell-based; conditions: for inhibition of growth at 0.05 µg/mL / inhibition of growth at 0.0125 µg/mL / inhibition of growth at 0.00625 µg/mL: Synechocystis, BG-11 Cu minus medium, read-out: % Inhn. Minus Copper Observed; for inhibition of growth at 0.05 µg/mL / % Inhn. Plus Copper Observed / inhibition of growth at 0.0125 µg/mL / inhibition of growth at 0.00625 µg/mL: 72 h; for % Inhn. Plus Copper Observed: BG-11 Cu plus medium
In short: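 Synechocystis sp. 6803 in Chelex-treated, copper-free BG-11 (pH 7.1) or the same medium plus 0.2 μM CuCl2, inoculated from a 4×10^5/mL suspension. Growth after 72 h at 27 °C was measured by light scattering and expressed as % inhibition versus compound-free wells. Copper-plus results were compared with Colby-predicted values.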

[3] = Synechocystis, read-out: Hydrazone % Inhn.

## O=C(N/N=C/c1cc(Cl)cc(Cl)c1O)c1ccccc1 [Compound 1]
[1]; [3]
  inhibition of growth at 0.05 µg/mL: 35%
[2]; Test Concn. 0.05 μg/mL
  inhibition of growth at 0.05 µg/mL: 29%
  % Inhn. Plus Copper Observed: 91%

## C/C(=N\NC(=O)c1ccccc1)c1cc(Cl)cc(Cl)c1O [Compound 6]
[1]; Synechocystis, Test Concn. 0.025 μg/ml, read-out: Hydrazone % Inhn.
  inhibition of growth at 0.025 µg/mL: 70%
[2]; Test Concn. 0.05 μg/mL
  inhibition of growth at 0.05 µg/mL: 19%
  % Inhn. Plus Copper Observed: 99%

## O=C(N/N=C/c1cc(Cl)cc(Cl)c1O)c1ccccc1O [Compound 7]
[1]; Synechocystis, Test Concn. 0.0125 μg/ml, read-out: Hydrazone % Inhn.
  inhibition of growth at 0.0125 µg/mL: 62%
[2]; Test Concn. 0.05 μg/mL
  inhibition of growth at 0.05 µg/mL: 22%
  % Inhn. Plus Copper Observed: 96%

## C/C(=N\NC(=O)c1ccc(Cl)cc1)c1cc(Cl)cc(Cl)c1O [Compound 12]
[2]; Test Concn. 0.0125 μg/mL
  inhibition of growth at 0.0125 µg/mL: 21%
  % Inhn. Plus Copper Observed: 82%

## O=C(N/N=C/c1cc(Cl)cc(Br)c1O)c1ccccc1 [Compound 14]
[2]; Test Concn. 0.05 μg/mL
  inhibition of growth at 0.05 µg/mL: 50%
  % Inhn. Plus Copper Observed: 97%

## O=C(N/N=C/c1cc(Cl)cc(Br)c1O)c1ccc(Cl)cc1 [Compound 15]
[2]; Test Concn. 0.00625 μg/mL
  inhibition of growth at 0.00625 µg/mL: 15%
  % Inhn. Plus Copper Observed: 74%

## O=C(N/N=C/c1cc(Cl)cc(Br)c1O)c1ccccc1O [Compound 18]
[2]; Test Concn. 0.0125 μg/mL
  inhibition of growth at 0.0125 µg/mL: 47%
  % Inhn. Plus Copper Observed: 86%

## O=C(N/N=C/c1ccc(Cl)c(Cl)c1O)c1ccccc1 [Compound 21]
[2]; Test Concn. 0.0125 μg/mL
  inhibition of growth at 0.0125 µg/mL: 39%
  % Inhn. Plus Copper Observed: 96%

## C/C(=N\NC(=O)c1cccc(C)c1)c1cc(Cl)cc(Cl)c1O [Compound 25, 3-methyl-benzoic acid [1-(3,5-dichloro-2-hydroxyphenyl)-ethylidene]-hydrazide]
[2]; Test Concn. 0.05 μg/mL
  inhibition of growth at 0.05 µg/mL: 18%
  % Inhn. Plus Copper Observed: 92%

## C/C(=N\NC(=O)c1ccc(C)cc1)c1cc(Cl)cc(Cl)c1O [Compound 26]
[1]; [3]
  inhibition of growth at 0.05 µg/mL: 50%
[2]; Test Concn. 0.05 μg/mL
  inhibition of growth at 0.05 µg/mL: 54%
  % Inhn. Plus Copper Observed: 95%

## O=C(N/N=C/c1cc(Cl)cc(C(F)(F)F)c1O)c1ccccc1 [Compound 27]
[1]; [3]
  inhibition of growth at 0.05 µg/mL: 41%
[2]; Test Concn. 0.05 μg/mL
  inhibition of growth at 0.05 µg/mL: 31%
  % Inhn. Plus Copper Observed: 95%

## O=C(N/N=C/c1cc(C(F)(F)F)cc(C(F)(F)F)c1O)c1ccc(Cl)cc1 [Compound 32]
[1]; [3]
  inhibition of growth at 0.05 µg/mL: 68%
[2]; Test Concn. 0.05 μg/mL
  inhibition of growth at 0.05 µg/mL: 26%
  % Inhn. Plus Copper Observed: 91%

## O=C(N/N=C/c1c(Cl)ccc(Cl)c1O)c1ccc(Cl)cc1 [Compound 45]
[2]; Test Concn. 0.00625 μg/mL
  inhibition of growth at 0.00625 µg/mL: 33%
  % Inhn. Plus Copper Observed: 78%

## O=C(N/N=C/c1cccc(Cl)c1O)c1ccc(Cl)cc1 [Compound 52]
[1]; [3]
  inhibition of growth at 0.05 µg/mL: 45%
[2]; Test Concn. 0.0125 μg/mL
  inhibition of growth at 0.0125 µg/mL: 8%
  % Inhn. Plus Copper Observed: 90%

## O=C(N/N=C/c1c(C(F)(F)F)ccc(Cl)c1O)c1ccc(Cl)cc1 [Compound 56]
[2]; Test Concn. 0.0125 μg/mL
  inhibition of growth at 0.0125 µg/mL: 28%
  % Inhn. Plus Copper Observed: 75%

## Cc1ccccc1C(=O)N/N=C/c1cc(Cl)cc(Cl)c1O [Compound 63]
[1]; [3]
  inhibition of growth at 0.05 µg/mL: 23%
[2]; Test Concn. 0.05 μg/mL
  inhibition of growth at 0.05 µg/mL: 37%
  % Inhn. Plus Copper Observed: 94%

## CC(=O)[O-].CC(=O)[O-].O=C(N/N=C/c1cc(Cl)cc(Cl)c1O)c1ccccc1.[Cu+2] [Compound 72]
[1]
  Complex % Inhn.: 98%

## CC(=O)[O-].CC(=O)[O-].O=C(N/N=C/c1cc(Cl)cc(Cl)c1O)c1ccccc1.O=C(N/N=C/c1cc(Cl)cc(Cl)c1O)c1ccccc1.[Cu+2] [Compound 73]
[1]
  Complex % Inhn.: 97%

## O=C(N/N=C/c1cc(Cl)cc(Cl)c1O)c1ccccc1.O=C(N/N=C/c1cc(Cl)cc(Cl)c1O)c1ccccc1.O=S(=O)([O-])[O-].[Cu+2] [Compound 74]
[1]
  Complex % Inhn.: 95%

## O=C(N/N=C/c1cc(Cl)cc(Cl)c1O)c1ccccc1.[Cl-].[Cl-].[Cu+2] [Compound 75]
[1]
  Complex % Inhn.: 97%

## O=C(N/N=C/c1cc(Cl)cc(Cl)c1O)c1ccccc1.O=C(N/N=C/c1cc(Cl)cc(Cl)c1O)c1ccccc1.[Cl-].[Cl-].[Cu+2] [Compound 76]
[1]
  Complex % Inhn.: 96%

## O=C(N/N=C/c1cc(Cl)cc(Cl)c1O)c1ccccc1.O=C(N/N=C/c1cc(Cl)cc(Cl)c1O)c1ccccc1.[Cl-].[Cl-].[Mn+2] [Compound 77]
[1]
  Complex % Inhn.: 35%

## O=C(NN=Cc1cc(Cl)cc(Cl)c1O)c1ccccc1.O=C(NN=Cc1cc(Cl)cc(Cl)c1O)c1ccccc1.[Cl-].[Cl-].[Zn+2] [Compound 78]
[1]
  Complex % Inhn.: 59%

## [Cl][Cu][Cl] [CuCl2, Copper chloride, reference compound]
[2]; CuCl2, 10 μM (so in the source), copper-plus vs copper-minus medium without test compound, across experiments
  % Inhn. by copper chloride alone: 7.0 ± 4.6%
